These are literature values, as cited in US20060035883A1, “Novel serotonin receptor ligands and their uses thereof” (priority 2004, published 2006).

Broadly, the Ki is the dissociation constant of the complex between target and ligand, obtained from inhibition or displacement.

Settings in all cases: read-out: Receptor affinities (Ki)
The target of series [1] is D2 (Homo sapiens, UniProt P14416).
Series [2] addresses α2.
For series [3], the target named is T1, 5-HT3 (Homo sapiens, UniProt P46098).
T1 sequence (P46098 24-478): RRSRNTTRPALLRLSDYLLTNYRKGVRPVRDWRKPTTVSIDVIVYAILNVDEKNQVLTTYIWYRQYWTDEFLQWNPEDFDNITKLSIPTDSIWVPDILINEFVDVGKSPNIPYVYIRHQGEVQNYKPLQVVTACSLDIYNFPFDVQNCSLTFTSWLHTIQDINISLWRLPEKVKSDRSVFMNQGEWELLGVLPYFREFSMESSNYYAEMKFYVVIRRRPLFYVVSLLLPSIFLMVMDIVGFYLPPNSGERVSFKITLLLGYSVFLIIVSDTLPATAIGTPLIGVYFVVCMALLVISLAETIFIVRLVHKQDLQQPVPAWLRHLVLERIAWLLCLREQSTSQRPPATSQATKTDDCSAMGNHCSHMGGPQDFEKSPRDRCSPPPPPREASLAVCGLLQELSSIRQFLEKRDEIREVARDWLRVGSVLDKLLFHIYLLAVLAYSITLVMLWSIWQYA

Series [4] concerns the target α1.
For series [5], the target named is T2, 5-HT2C (Homo sapiens, UniProt P28335).
T2 sequence (P28335 33-458): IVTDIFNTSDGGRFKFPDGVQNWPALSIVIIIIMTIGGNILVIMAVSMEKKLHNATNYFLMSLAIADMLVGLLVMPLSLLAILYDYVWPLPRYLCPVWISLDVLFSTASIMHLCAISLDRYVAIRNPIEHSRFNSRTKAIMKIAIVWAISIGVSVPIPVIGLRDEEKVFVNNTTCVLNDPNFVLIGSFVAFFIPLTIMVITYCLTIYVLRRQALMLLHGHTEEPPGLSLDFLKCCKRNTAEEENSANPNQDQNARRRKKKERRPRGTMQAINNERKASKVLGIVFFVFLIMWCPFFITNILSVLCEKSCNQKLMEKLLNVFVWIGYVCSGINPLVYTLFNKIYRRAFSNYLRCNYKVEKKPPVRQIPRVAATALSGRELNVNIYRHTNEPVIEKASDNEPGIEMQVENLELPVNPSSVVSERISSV

Bounds are passed on as bounds.

Chain of D2 (P14416 whole entry): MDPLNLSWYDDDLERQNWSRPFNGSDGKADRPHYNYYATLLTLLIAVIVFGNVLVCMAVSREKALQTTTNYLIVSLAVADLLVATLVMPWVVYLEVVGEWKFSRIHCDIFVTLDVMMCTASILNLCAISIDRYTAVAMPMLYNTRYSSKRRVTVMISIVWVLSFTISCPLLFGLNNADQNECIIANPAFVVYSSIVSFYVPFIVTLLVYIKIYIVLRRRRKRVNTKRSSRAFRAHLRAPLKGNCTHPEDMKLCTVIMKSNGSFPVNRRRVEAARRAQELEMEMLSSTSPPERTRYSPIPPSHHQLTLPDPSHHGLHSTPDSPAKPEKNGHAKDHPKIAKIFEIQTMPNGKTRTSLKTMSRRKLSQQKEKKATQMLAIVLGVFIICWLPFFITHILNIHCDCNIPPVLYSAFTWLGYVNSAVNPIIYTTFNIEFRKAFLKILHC

In the case of `CN1CCN2c3ccccc3Cc3ccccc3C2C1` (stereo not drawn) [Mianserin], the Ki in series [1] was more than 1000 nM.

For `CN1CCN2c3ncccc3Cc3ccccc3C2C1` (stereo not drawn) [Mirtazepine, mirtazepine], the Ki was 65 nM in series [2]; more than 1000 nM in series [1]; 8 nM in series [3]; 500 nM in series [4]; 12 nM in series [5].
